Results as given in patent publication US12024507B2, “Compounds as GLP-1R agonists” (Terns Pharmaceuticals, Inc., priority 2021, dated 2024).

Tests used:
[1] = molecular target: T1, human GLP-1R receptor (Homo sapiens, UniProt P43220); assay: GLP-1R cell assay (cAMP TR-FRET, low expression CHO-K1_hGLP-1Rlow_clone10 cell line); format: cell-based; conditions: CHO-K1_hGLP-1Rlow_clone10 cells, relative to control GLP-1 peptide agonist, read-out: GLP1 EC50
T1 construct: expressed in transfected cells
T1 sequence (P43220 24-463): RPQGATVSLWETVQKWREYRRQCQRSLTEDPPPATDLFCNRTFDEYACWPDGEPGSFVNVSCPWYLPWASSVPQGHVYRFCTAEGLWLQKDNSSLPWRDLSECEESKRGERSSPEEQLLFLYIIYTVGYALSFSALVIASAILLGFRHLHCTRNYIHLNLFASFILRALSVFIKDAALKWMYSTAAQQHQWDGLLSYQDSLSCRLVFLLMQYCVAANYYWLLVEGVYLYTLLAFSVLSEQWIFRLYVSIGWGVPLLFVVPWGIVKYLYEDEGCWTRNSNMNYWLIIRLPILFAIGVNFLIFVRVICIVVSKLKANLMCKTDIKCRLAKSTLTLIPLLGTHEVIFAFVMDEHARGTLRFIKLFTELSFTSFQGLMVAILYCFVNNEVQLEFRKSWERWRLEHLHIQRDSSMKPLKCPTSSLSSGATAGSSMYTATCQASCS
Procedure: Stable cell lines expressing high and low GLP-1R surface expression were generated in CHO-K1 cells transfected (Fugene 6) with a puromycin selectable DNA plasmid encoding human GLP-1R receptor (accession number: NM_002062.5) under control of an EF1A promoter. Transfected cells were seeded into 24-well plates (9,000 cells/well) containing complete medium and incubated in a humidified incubator at 37° C. with 5% carbon dioxide. After overnight incubation, medium was replaced with complete medium supplemented with puromycin (6 μg/mL) and refreshed every 2-3 days to select for stably transfected cells. Individual pools of selected cells were expanded prior to analysis for responsiveness to GLP-1 control peptide using a TR-FRET assay to detect cAMP (LANCE Ultra cAMP Assay, Perkin Elmer). Briefly, cells were collected in Versene solution, plated in 384-well plates (1,000 cells/well) and combined with serially diluted GLP-1R control peptide (10 nL) using an acoustic dispenser (ECHO). Plates were incubated for 30 minutes at 25° C. prior to the addition of EU-cAMP tracer (5 μL) and Ulight-anti-cAMP (5 μL) reagents to each well, followed by 15 minutes incubation at 25° C. TR-FRET signal was detected using an EnVision Multimode Plate Reader (excitation=320 nm; emission=615 and 655 nm). Dose-response curves were used to generate EC50 values as a measure of responsiveness to the GLP-1R control peptide. Selected cell lines were monitored for responsiveness over multiple passages to ensure stability. […] Briefly, GLP-1R expression was analyzed by flow cytometry using a fluorescein-labeled Exendin-4 peptide fluorescent probe (FLEX). Cells were harvested in Versene solution and washed 3-times with PBS+0.5% BSA before incubation with FLEX reagent (10 μM) for 2 hours at room temperature. After incubation, cells were washed 3-times in PBS+0.5% BSA before final resuspension in PBS prior to analysis by flow cytometry to measure FLEX mean fluorescence intensity (MFI) as a measure of GLP-1R expression on the cell surface.
For compound testing in the CHO-K1_hGLP-1Rlow_clone10 cell line, cells were seeded in 384-well plates (1,000 cells/well). Test compounds were serially diluted in DMSO (10-point, 3-fold dilution), added to wells using an ECHO dispenser (10 nL/well) and plates were centrifuged for 1 min and agitated for 2 min at room temperature prior to 30-minute incubation at 25° C. After incubation, Eu-cAMP (5 μL) and Ulight-anti-cAMP (5 μL) reagents were added to each well, followed by centrifugation for 1 minute, agitation for 2 minutes at room temperature, and final incubation of the plates at 25° C. for 15 minutes. Plates were read using an EnVision microplate reader (excitation=320 nm; emission=615 and 655 nm). Dose-response curves were generated from duplicate wells based on percent activation calculated relative to a control GLP-1 peptide agonist that was run in parallel. EC50 values were determined by fitting percent activation as a function of compound concentration using the Hill equation (XLfit).
The compounds tested were compound samples prepared according to the General Procedures described in the Examples section.

[2] = Metabolic stability in human hepatocytes; format: in vitro ADME; conditions: cryopreserved hepatocytes, 1×10^6 cells/mL; for CLint scaled at 1 μM: intrinsic clearance; for half-life at 1 μM: read-out: Human T1/2
Procedure: (§1) Test compounds were incubated in rat and human hepatocytes and stability was assessed from the substrate […] approach. Test compounds were dissolved in dimethyl sulfoxide (DMSO) to create a 10 mM Stock, and then further diluted to create a 1000×Working Stock of 1 mM with DMSO in 96-well plates for test compounds and the positive control (midazolam). Vials containing cryopreserved hepatocytes were removed from the liquid nitrogen tank and immediately immersed in a 37° C. water bath. The vials were shaken gently until the contents had thawed and were then immediately emptied into 48 mL of pre-warmed HT Medium in a 50 mL conical tube. Cells remaining in the vial were resuspended with 1.0 mL of pre-warmed HT Medium and added to the conical tube. The tube was capped and then gently inverted several times to resuspend the hepatocytes. The cell suspension was centrifuged at 50×g at room temperature for 5 minutes and the supernatant discarded. The cell pellet was loosened by gently swirling the centrifuge tube and was re-suspended in 4 mL of warm Dulbecco's Modified Eagle medium (DMEM). Cell density was determined by a cell counter by Nexcelom, and DMEM medium was added to obtain a target density of 1×10^6 cells/mL. The assay was carried out in 96-well microtiter plates. Test Compounds were incubated at 1 μM with 1×10^6 cells/mL hepatocytes in DMEM for 0, 30, 60, 120 and 240 minutes. The incubation was carried out with gentle shaking at 37° C. under a humid atmosphere of 95% air/5% CO2. The volume of the incubation mixture was 37 μL with a final 0.1% DMSO. At each of the time points, the incubation was stopped by adding 150 μL quenching solution (100% acetonitrile, 0.1% formic acid containing bucetin as an internal standard for positive ESI mode). Subsequently, the mixtures were vortexed for 20 min and centrifuged at 4,000 RPM at 10° C. The supernatant (80 μL) was transferred to a clean 96-well plate and analyzed by LC-MS/MS. Midazolam at 1 μM with a final 0.1% DMSO was included as a positive control to verify assay performance. The percent parent remaining, intrinsic and predicted hepatic clearance and t1/2 were calculated. All samples were analyzed by LC-MS/MS using an AB Sciex API 4000 instrument, coupled to a Shimadzu LC-20AD LC Pump system. Separation was achieved using a Waters Atlantis T3 dC18 reverse phase HPLC column (20 mm×2.1 mm) at a flow rate of 0.5 mL/min. The mobile phase consisted of 0.1% formic acid in water (solvent A) and 0.1% formic acid in 100% acetonitrile (solvent B). Elution conditions are detailed below.
(§2) The ion optics of each test compound were optimized for their declustering potential (DP), […] (CE), collision-cell exit potential (CXP) and used in a selected ion monitoring experiment in the positive ion mode. The peak area ratio of each test compound to internal standard was then evaluated for stability. The extent of metabolism was calculated based on the disappearance of the test compound, compared to its initial concentration. The initial rates of clearance of the test compound were calculated using the linear regression plot of semi-log % remaining of the compound versus time.
(§3) The predicted hepatic clearance (CLhep) was calculated using the well stirred method with the following formula with CLint(in vivo) normalized based on liver weight: CLint(in vivo)=CLint×Hepatocellularity×liver weight CLhep predicted=(CLint(in vivo)×Qliver)/(CLint(in vivo)+Qliver) Where Qliver ((ml/min/kg) is Liver Blood Flow
(§4) The relevant physiological parameters of liver weight, blood flow, and hepatocellularity for various species are listed below:
(§5) Results are presented in the Table B3 below for the intrinsic clearance (mL/min/kg) and half-life (t1/2).

[3] = Metabolic stability in rat hepatocytes; format: in vitro ADME; conditions: cryopreserved hepatocytes, 1×10^6 cells/mL; for CLint scaled at 1 μM: intrinsic clearance; for half-life at 1 μM: read-out: Rat T1/2
Procedure: as §1, §2, §3, §4, §5

SMILES | EC50 [1] [nM] | further results
N#Cc1ccc(COc2cccc(N3CCN(Cc4nc5ccc(C(=O)NCC(F)(F)F)cc5n4Cc4ncco4)CC3)n2)c(F)c1 [Compound 3, 2-((4-(6-((4-cyano-2-fluorobenzyl)oxy)pyridin-2-yl)piperazin-1-yl)methyl)-1-(oxazol-2-ylmethyl)-N-(2,2,2-trifluoroethyl)-1H-benzo[d]imidazole-6-carboxamide] | 5940 | –
O=c1nc(-c2ccc3nc(CN4CCN(c5cccc(OCc6ccc(Br)cc6F)n5)CC4)n(C[C@@H]4CCO4)c3c2)[nH]o1 [Compound 7, (S)-3-(2-((4-(6-((4-bromo-2-fluorobenzyl)oxy)pyridin-2-yl)piperazin-1-yl)methyl)-1-(oxetan-2-ylmethyl)-1H-benzo[d]imidazol-6-yl)-1,2,4-oxadiazol-5(2H)-one] | 148 | –
O=c1cc(-c2ccc3nc(CN4CCC(c5cccc(OCc6ccc(Cl)cc6F)n5)CC4)n(C[C@@H]4CCO4)c3c2)o[nH]1 [Compound 6, (S)-5-(2-((4-(6-((4-chloro-2-fluorobenzyl)oxy)pyridin-2-yl)piperidin-1-yl)methyl)-1-(oxetan-2-ylmethyl)-1H-benzo[d]imidazol-6-yl)isoxazol-3(2H)-one] | 10.6 | –
N#Cc1ccc(COc2cccc(C3CCN(Cc4nc5ccc(C6(O)COC6)cc5n4Cc4cncs4)CC3)n2)c(F)c1 [Compound 15, 3-fluoro-4-(((6-(1-((6-(3-hydroxyoxetan-3-yl)-1-(thiazol-5-ylmethyl)-1H-benzo[d]imidazol-2-yl)methyl)piperidin-4-yl)pyridin-2-yl)oxy)methyl)benzonitrile] | > 10000 | –
N#Cc1ccc(COc2cccc(C3CCN(Cc4nc5ccc(C(=O)NO)cc5n4C[C@@H]4CCO4)CC3)n2)c(F)c1 [Compound 14, (S)-2-((4-(6-((4-cyano-2-fluorobenzyl)oxy)pyridin-2-yl)piperidin-1-yl)methyl)-N-hydroxy-1-(oxetan-2-ylmethyl)-1H-benzo[d]imidazole-6-carboxamide] | 50 | –
N#Cc1ccc(COc2cccc(C3CCN(Cc4nc5ccc(-c6c[nH]c(=O)o6)cc5n4Cc4cncs4)CC3)n2)c(F)c1 [Compound 12, 3-fluoro-4-(((6-(1-((6-(2-oxo-2,3-dihydrooxazol-5-yl)-1-(thiazol-5-ylmethyl)-1H-benzo[d]imidazol-2-yl)methyl)piperidin-4-yl)pyridin-2-yl)oxy)methyl)benzonitrile] | 704 | –
N#Cc1ccc(COc2cccc(C3CCN(Cc4nc5ccc(-c6nnn[nH]6)cc5n4Cc4cncs4)CC3)n2)c(F)c1 [Compound 11, 4-(((6-(1-((6-(1H-tetrazol-5-yl)-1-(thiazol-5-ylmethyl)-1H-benzo[d]imidazol-2-yl)methyl)piperidin-4-yl)pyridin-2-yl)oxy)methyl)-3-fluorobenzonitrile] | 53.2 | CLint scaled at 1 μM [2]: 19.7 ± 0.4 mL/min/kg; half-life at 1 μM [2]: 2.03 ± 0.041 h; CLint scaled at 1 μM [3]: 68.3 ± 2.52 mL/min/kg; half-life at 1 μM [3]: 0.812 ± 0.03 h
N#Cc1ccc(COc2cccc(C3CCN(Cc4nc5ccc(C6=CC(=O)NC6=O)cc5n4Cc4cncs4)CC3)n2)c(F)c1 [Compound 9, 4-(((6-(1-((6-(2,5-dioxo-2,5-dihydro-1H-pyrrol-3-yl)-1-(thiazol-5-ylmethyl)-1H-benzo[d]imidazol-2-yl)methyl)piperidin-4-yl)pyridin-2-yl)oxy)methyl)-3-fluorobenzonitrile] | 461 | –
N#Cc1ccc(COc2cccc(C3CCN(Cc4nc5ccc(-c6nc(=O)o[nH]6)cc5n4C[C@@H]4CCO4)CC3)n2)c(F)c1 [Compound 5, (S)-3-fluoro-4-(((6-(1-((1-(oxetan-2-ylmethyl)-6-(5-oxo-2,5-dihydro-1,2,4-oxadiazol-3-yl)-1H-benzo[d]imidazol-2-yl)methyl)piperidin-4-yl)pyridin-2-yl)oxy)methyl)benzonitrile] | 45.4 | –
N#Cc1ccc(COc2cccc(C34CCN(Cc5nc6ccc(-c7nnn[nH]7)cc6n5Cc5cncs5)CC3C4)n2)c(F)c1 (centres unmarked) [Compound 10, 4-(((6-(3-((6-(1H-tetrazol-5-yl)-1-(thiazol-5-ylmethyl)-1H-benzo[d]imidazol-2-yl)methyl)-3-azabicyclo[4.1.0]heptan-6-yl)pyridin-2-yl)oxy)methyl)-3-fluorobenzonitrile] | 118 | –
CC1(c2ccc(C#N)cc2F)Oc2cccc(C3CCN(Cc4nc5ccc(-c6nnn[nH]6)cc5n4C[C@@H]4CCO4)CC3)c2O1 (stereo partly drawn) [Compound 16, 3-fluoro-4-(2-methyl-4-(1-((1-(((S)-oxetan-2-yl)methyl)-6-(1H-tetrazol-5-yl)-1H-benzo [d]imidazol-2-yl)methyl)piperidin-4-yl)benzo[d][1,3]dioxol-2-yl)benzonitrile] | 2.68 | CLint scaled at 1 μM [2]: 6.22 ± 0.55 mL/min/kg; half-life at 1 μM [2]: 6.44 ± 0.571 h; CLint scaled at 1 μM [3]: 6.93 mL/min/kg; half-life at 1 μM [3]: 8 h
CS(=O)(=O)NC(=O)c1ccc2nc(CN3CCN(c4cccc(OCc5ccc(C#N)cc5F)n4)CC3)n(Cc3ncco3)c2c1 [Compound 4, 2-((4-(6-((4-cyano-2-fluorobenzyl)oxy)pyridin-2-yl)piperazin-1-yl)methyl)-N-(dioxo-l5-sulfaneyl)-1-(oxazol-2-ylmethyl)-1H-benzo[d]imidazole-6-carboxamide] | 231 | –
